Results: ChEMBL document CHEMBL1201862, “PubChem BioAssay data set” (2004)
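Growth conditions: 96-well plates. Treatment: test compound, 48 hours, 5 concentrations. Analysis: linear interpolation between bracketing concentrations; unreached endpoints set to highest concentration. At the GI50, growth is halved.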 Calls of active or inactive are those of the source. Rule as the data show it: active = GI50 up to about 1.1 µM and inactive = higher.

Experiments:
Assay in all cases: NCI tumour cell line growth inhibition, 48 h
SK-MEL-5 = tested on: SK-MEL-5
HCC 2998 = tested on: HCC 2998
A549 = tested on: A549
NCI-H23 = tested on: NCI-H23
NCI-H226 = tested on: NCI-H226
DU-145 = tested on: DU-145
UO-31 = tested on: UO-31
HL-60 = tested on: HL-60
MCF7 = tested on: MCF7
LOX IMVI = tested on: LOX IMVI
NCI-H460 = tested on: NCI-H460
EKVX = tested on: EKVX
SW-620 = tested on: SW-620
786-0 = tested on: 786-0
NCI/ADR-RES = tested on: NCI/ADR-RES
SN12C = tested on: SN12C
K562 = tested on: K562
HT-29 = tested on: HT-29
Malme-3M = tested on: Malme-3M

Structure (SMILES)	GI50 (SK-MEL-5)	GI50 (HCC 2998)	GI50 (A549)	GI50 (NCI-H23)	GI50 (NCI-H226)	GI50 (DU-145)	GI50 (UO-31)	GI50 (HL-60)	GI50 (MCF7)	GI50 (LOX IMVI)	GI50 (NCI-H460)	GI50 (EKVX)	GI50 (SW-620)	GI50 (786-0)	GI50 (NCI/ADR-RES)	GI50 (SN12C)	GI50 (K562)	GI50 (HT-29)	GI50 (Malme-3M)
CSc1nnnc2ccccc12	> 100 µM (inactive)	> 100 µM (inactive)	> 100 µM (inactive)	> 100 µM (inactive)	> 100 µM (inactive)	> 100 µM (inactive)	> 100 µM (inactive)	> 100 µM (inactive)	51.4 µM (inactive)	> 100 µM (inactive)	> 100 µM (inactive)	> 100 µM (inactive)	> 100 µM (inactive)	> 100 µM (inactive)	> 100 µM (inactive)	> 100 µM (inactive)	> 100 µM (inactive)	> 100 µM (inactive)	> 100 µM (inactive)
Cn1cc(C2NC(=O)c3ccccc3N2)c2ccccc21 (stereo not drawn)	0.182 µM (active)	1.19 µM (inactive)	1.22 µM (inactive)	1.31 µM (inactive)	0.746 µM (active)	0.887 µM (active)	> 100 µM (inactive)	0.12 µM (active)	0.124 µM (active)	0.877 µM (active)	1.06 µM (active)	0.998 µM (active)	0.542 µM (active)	0.955 µM (active)	0.491 µM (active)	1.63 µM (inactive)	0.125 µM (active)	0.191 µM (active)	0.316 µM (active)
COc1ccc(-c2cc(-c3ccccc3)n(C3OCC(OC(C)=O)C(OC(C)=O)C3OC(C)=O)c(=S)c2C#N)cc1 (stereo not drawn)	> 100 µM (inactive)	> 100 µM (inactive)	> 100 µM (inactive)	> 100 µM (inactive)	20 µM (inactive)	> 100 µM (inactive)	28.6 µM (inactive)	> 100 µM (inactive)	> 100 µM (inactive)	> 100 µM (inactive)	9.42 µM (inactive)	> 100 µM (inactive)	> 100 µM (inactive)	–	> 100 µM (inactive)	> 100 µM (inactive)	> 100 µM (inactive)	> 100 µM (inactive)	> 100 µM (inactive)
CNc1nc(=S)[nH]c2sc3c(c12)CCCC3	> 75 µM (inactive)	> 75 µM (inactive)	–	> 75 µM (inactive)	> 75 µM (inactive)	> 75 µM (inactive)	67 µM (inactive)	> 75 µM (inactive)	> 75 µM (inactive)	> 75 µM (inactive)	–	45.1 µM (inactive)	> 75 µM (inactive)	> 75 µM (inactive)	> 75 µM (inactive)	> 75 µM (inactive)	> 75 µM (inactive)	> 75 µM (inactive)	> 75 µM (inactive)
CCOC(=O)c1sc2nc(SC)nc(Nc3ccc4c(c3)OCCO4)c2c1N	7.53 µM (inactive)	25.7 µM (inactive)	10 µM (inactive)	14.2 µM (inactive)	3.33 µM (inactive)	14.1 µM (inactive)	15 µM (inactive)	> 100 µM (inactive)	10.5 µM (inactive)	30.6 µM (inactive)	17.5 µM (inactive)	9.59 µM (inactive)	19.5 µM (inactive)	–	21.6 µM (inactive)	8.49 µM (inactive)	20.6 µM (inactive)	21 µM (inactive)	12 µM (inactive)
Nc1cc(N)cc(Cc2ccccc2)c1	> 100 µM (inactive)	> 100 µM (inactive)	> 100 µM (inactive)	> 100 µM (inactive)	> 100 µM (inactive)	> 100 µM (inactive)	> 100 µM (inactive)	> 100 µM (inactive)	> 100 µM (inactive)	> 100 µM (inactive)	> 100 µM (inactive)	> 100 µM (inactive)	> 100 µM (inactive)	> 100 µM (inactive)	> 100 µM (inactive)	> 100 µM (inactive)	> 100 µM (inactive)	> 100 µM (inactive)	> 100 µM (inactive)
O=C(CBr)c1ccc2cc(Br)c3ccccc3c2c1	14.3 µM (inactive)	54.2 µM (inactive)	27.2 µM (inactive)	14.7 µM (inactive)	9.33 µM (inactive)	22.8 µM (inactive)	25.6 µM (inactive)	25.9 µM (inactive)	26.4 µM (inactive)	36.3 µM (inactive)	23 µM (inactive)	24.5 µM (inactive)	25.2 µM (inactive)	37.6 µM (inactive)	36.7 µM (inactive)	–	26.7 µM (inactive)	32.3 µM (inactive)	15.9 µM (inactive)
CSc1ccc2c(cc1=O)[C@@H](NC(=O)c1ccc([N+](=O)[O-])cc1)CCc1cc(O)c(O)c(O)c1-2	18.7 µM (inactive)	> 100 µM (inactive)	28.1 µM (inactive)	45.3 µM (inactive)	46.5 µM (inactive)	> 100 µM (inactive)	78.3 µM (inactive)	11.7 µM (inactive)	31.8 µM (inactive)	34.8 µM (inactive)	40 µM (inactive)	> 100 µM (inactive)	43.6 µM (inactive)	29.8 µM (inactive)	17.4 µM (inactive)	21.6 µM (inactive)	18.4 µM (inactive)	17.8 µM (inactive)	> 100 µM (inactive)
O=c1c(C(c2ccc(C(c3c(O)oc4cc(O)ccc4c3=O)c3c(O)oc4cc(O)ccc4c3=O)cc2)c2c(O)oc3cc(O)ccc3c2=O)c(O)oc2cc(O)ccc12	48.6 µM (inactive)	> 100 µM (inactive)	> 100 µM (inactive)	> 100 µM (inactive)	> 100 µM (inactive)	> 100 µM (inactive)	> 100 µM (inactive)	44.6 µM (inactive)	> 100 µM (inactive)	> 100 µM (inactive)	> 100 µM (inactive)	> 100 µM (inactive)	> 100 µM (inactive)	–	> 100 µM (inactive)	93.1 µM (inactive)	> 100 µM (inactive)	> 100 µM (inactive)	> 100 µM (inactive)
C=CCOc1cccc(C2(O)c3ccccc3C3=NCCCN32)c1 (stereo not drawn)	17 µM (inactive)	14.5 µM (inactive)	5.6 µM (inactive)	10.3 µM (inactive)	3.38 µM (inactive)	41.2 µM (inactive)	13.8 µM (inactive)	1.47 µM (inactive)	16.8 µM (inactive)	14.5 µM (inactive)	16.8 µM (inactive)	3.77 µM (inactive)	11.9 µM (inactive)	8.49 µM (inactive)	> 35.2 µM (inactive)	31.1 µM (inactive)	4.58 µM (inactive)	8.57 µM (inactive)	19.9 µM (inactive)
c1ccc2c3c(c(N4CCNCC4)nc2c1)CCCC3	12 µM (inactive)	1.95 µM (inactive)	15.1 µM (inactive)	14.6 µM (inactive)	14.8 µM (inactive)	15.3 µM (inactive)	2.9 µM (inactive)	8.93 µM (inactive)	14.4 µM (inactive)	14.2 µM (inactive)	15.1 µM (inactive)	7.53 µM (inactive)	17 µM (inactive)	14.4 µM (inactive)	14.1 µM (inactive)	16.3 µM (inactive)	5.5 µM (inactive)	14.2 µM (inactive)	19.9 µM (inactive)
